Key:
Experiment in all cases: In vitro antimicrobial efficacy using time kill procedure (ASTM E 2315-03)
Type in all cases: cell-based
Conditions in all cases: 1.0% concentration
[1] = system: Candida Albicans—ATCC No. 10231
Experimental: (§1) The following target organisms were included in the tests: E. Coli—ATCC No. 8739; Staphylococcus Aureus—ATCC No. 6538 and Candida Albicans—ATCC No. 10231. The initial inoculum counts for all the organisms were between 10^6 and 10^8 CFUs/ml.
(§2) The testing procedure was according to ASTM E 2315-03 standards and protocols. The exposure times were 2 minutes and 10 minutes. Each test concentration was tested in duplicate and each sample was plated in duplicate.
(§3) The log reduction expresses the efficacy of the antimicrobial formulation against the target organism. The final mean number of Colony Forming Units (CFUs) per ml of test solution at a given exposure time log 10 is calculated as follows:
(§4) Mean No. of CFUs/ml ═Na=C/(n×D×V)
(§5) • C=Total number of colonies counted on all plates • V=Sample volume used to prepare the pour plate (1 ml) • D=Dilution factor (0.01) • n=Number of plates taken into account • a=exposure time
(§6) The mean log reduction is calculated using the equation: […]
(§7) Mean log reduction log 10(NI×0.01)−log 10 (Na)
(§8) Where NI is the initial organism count

[2] = system: Staphylococcus Aureus—ATCC No. 6538
Experimental: as §1, §2, §3, §4, §5, §6, §7, §8

E. Coli—ATCC No. 8739 = system: E. Coli—ATCC No. 8739
Experimental: as §1, §2, §3, §4, §5, §6, §7, §8

`CC(O)C(=O)O` (stereo not drawn) [LA 88, Lactic Acid 88%] was tested, and the “2 minute log reduction, Candida Albicans” value ([1]; 2 minutes exposure) was 2.69, the “10 minute log reduction, Candida Albicans” value ([1]; 10 minutes exposure) was 2.79 and the “2 minute log reduction, S. Aureus” value ([2]; 2 minutes exposure) was less than 2.0. For the same compound, the “10 minute log reduction, S. Aureus” value ([2]; 10 minutes exposure) was less than 2.0, the “2 minute log reduction, E. Coli” value (E. Coli—ATCC No. 8739; 2 minutes exposure) was 2.36 and the “10 minute log reduction, E. Coli” value (E. Coli—ATCC No. 8739; 10 minutes exposure) was 2.41.

From patent US20110028546A1, “NOVEL ANTIMICROBIAL FORMULATIONS INCORPORATING ALKYL ESTERS OF FATTY ACIDS AND NANOEMULSIONS THEREOF” (priority 2006, published 2011)
